In ChEMBL document CHEMBL1153471, “3,5-Diphenylpent-2-enoic acids as allosteric activators of the protein kinase PDK1: structure-activity relationships and thermodynamic characterization of binding as paradigms for PIF-binding pocket-targeting compounds” (J Med Chem, 2009):
Positions count from the first letter of the chain named. Activity calls are given as the source filed them. The rule behind the calls is not given here.

Tests used:
[1] = target: T1, 3-phosphoinositide-dependent protein kinase 1 (Homo sapiens, UniProt O15530); assay: Binding affinity to PDK1 (50 to 359) by isothermal titration calorimetry
T1 sequence (O15530 whole entry): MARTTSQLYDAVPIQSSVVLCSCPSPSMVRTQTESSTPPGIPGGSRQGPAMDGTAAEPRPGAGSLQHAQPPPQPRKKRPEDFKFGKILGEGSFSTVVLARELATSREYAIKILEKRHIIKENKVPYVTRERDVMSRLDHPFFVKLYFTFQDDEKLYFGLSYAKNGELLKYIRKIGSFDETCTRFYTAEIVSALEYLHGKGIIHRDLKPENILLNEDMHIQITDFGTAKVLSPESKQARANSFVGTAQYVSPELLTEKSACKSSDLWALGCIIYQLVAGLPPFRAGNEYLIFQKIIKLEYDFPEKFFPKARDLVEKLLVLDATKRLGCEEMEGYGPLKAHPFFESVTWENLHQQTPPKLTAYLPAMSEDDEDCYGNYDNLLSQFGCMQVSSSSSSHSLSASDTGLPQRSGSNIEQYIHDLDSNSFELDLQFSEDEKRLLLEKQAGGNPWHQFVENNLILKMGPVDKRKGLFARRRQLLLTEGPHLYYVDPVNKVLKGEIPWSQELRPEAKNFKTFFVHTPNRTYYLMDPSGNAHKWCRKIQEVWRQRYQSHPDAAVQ

[2] = target: T2, 3-phosphoinositide-dependent protein kinase 1 (Homo sapiens) (UniProt O15530)
T2 sequence (whole entry): T1 sequence (O15530 whole entry)

[3] = target: T2, 3-phosphoinositide-dependent protein kinase 1 (Homo sapiens); assay: Binding affinity to wild type recombinant GST-PDK1 expressed in HEK293 cells at 2 uM; assay type: cell-based
[4] = tested on: T3, 3-phosphoinositide-dependent protein kinase 1 (Homo sapiens), O15530 [V127T]; assay: Binding affinity to GST-PDK1 V127T mutant expressed in HEK293 cells at 2 uM; assay type: cell-based
T3 sequence (whole entry): T1 sequence (O15530 whole entry) with V127T

| Molecule | Kd [1] | Kd ([1]; read-out: Kd) [µM] | Ka [2] [M⁻¹] | further results |
| --- | --- | --- | --- | --- |
| O=C(O)/C=C(/CCc1ccc2ccccc2c1)c1ccccc1 | – | 13.8 | – | – |
| O=C(O)/C=C(/CCc1ccc(C(F)(F)F)cc1)c1ccccc1 | – | 10.4 | 96600 | – |
| O=C(O)/C=C(/CCc1ccc(Cl)c(Cl)c1)c1ccccc1 | – | 13.9 | 71800 | – |
| H-REPRILSEEEQEMFRDFDYIADEC-OH | – | – | – | Activity [3]: Active; Activity [4]: Active |
| O=C(O)/C=C(/CCc1ccc(Cl)cc1Cl)c1ccccc1 | – | 5.9 | – | – |
| O=C(O)/C=C(\CCc1ccc(Br)cc1F)c1ccccc1 | Not Active | – | – | – |
| O=C(O)/C=C(/CCc1c[nH]c2ccccc12)c1ccccc1 | – | 10 | – | – |

More lines, main results first:

| Kd [1] | Kd ([1]; read-out: Kd) [µM] | Ka [2] [M⁻¹] | Molecule | further results |
| --- | --- | --- | --- | --- |
| Not Active | – | – | O=C(O)/C=C(\CCc1ccc2ccccc2c1)c1ccccc1 | – |
| – | 20.9 | 47800 | O=C(O)/C=C(/CCc1ccc(Br)cc1)c1ccccc1 | – |
| Not Active | – | – | O=C(O)/C=C(\CCC1C=Nc2ccccc21)c1ccccc1 (centres undefined) | – |
